From ChEMBL document CHEMBL3425437, “Selective Inhibitors of Cyclin G Associated Kinase (GAK) as Anti-Hepatitis C Agents” (J Med Chem, 2015) come the findings set out here.

Molecules are shown by their SMILES.

Broadly, the Kd is the constant that tells how readily two partners part at equilibrium. The low end stands for tighter binding, the high end for weaker binding. Usually EC50 stands for the concentration that produces a half-maximal response. By CC50 is commonly meant the concentration that lowers cell viability or growth by half.

Data set [1] deals with T1, Cyclin-G-associated kinase (Homo sapiens, UniProt O14976).
T1 sequence (O14976 whole entry): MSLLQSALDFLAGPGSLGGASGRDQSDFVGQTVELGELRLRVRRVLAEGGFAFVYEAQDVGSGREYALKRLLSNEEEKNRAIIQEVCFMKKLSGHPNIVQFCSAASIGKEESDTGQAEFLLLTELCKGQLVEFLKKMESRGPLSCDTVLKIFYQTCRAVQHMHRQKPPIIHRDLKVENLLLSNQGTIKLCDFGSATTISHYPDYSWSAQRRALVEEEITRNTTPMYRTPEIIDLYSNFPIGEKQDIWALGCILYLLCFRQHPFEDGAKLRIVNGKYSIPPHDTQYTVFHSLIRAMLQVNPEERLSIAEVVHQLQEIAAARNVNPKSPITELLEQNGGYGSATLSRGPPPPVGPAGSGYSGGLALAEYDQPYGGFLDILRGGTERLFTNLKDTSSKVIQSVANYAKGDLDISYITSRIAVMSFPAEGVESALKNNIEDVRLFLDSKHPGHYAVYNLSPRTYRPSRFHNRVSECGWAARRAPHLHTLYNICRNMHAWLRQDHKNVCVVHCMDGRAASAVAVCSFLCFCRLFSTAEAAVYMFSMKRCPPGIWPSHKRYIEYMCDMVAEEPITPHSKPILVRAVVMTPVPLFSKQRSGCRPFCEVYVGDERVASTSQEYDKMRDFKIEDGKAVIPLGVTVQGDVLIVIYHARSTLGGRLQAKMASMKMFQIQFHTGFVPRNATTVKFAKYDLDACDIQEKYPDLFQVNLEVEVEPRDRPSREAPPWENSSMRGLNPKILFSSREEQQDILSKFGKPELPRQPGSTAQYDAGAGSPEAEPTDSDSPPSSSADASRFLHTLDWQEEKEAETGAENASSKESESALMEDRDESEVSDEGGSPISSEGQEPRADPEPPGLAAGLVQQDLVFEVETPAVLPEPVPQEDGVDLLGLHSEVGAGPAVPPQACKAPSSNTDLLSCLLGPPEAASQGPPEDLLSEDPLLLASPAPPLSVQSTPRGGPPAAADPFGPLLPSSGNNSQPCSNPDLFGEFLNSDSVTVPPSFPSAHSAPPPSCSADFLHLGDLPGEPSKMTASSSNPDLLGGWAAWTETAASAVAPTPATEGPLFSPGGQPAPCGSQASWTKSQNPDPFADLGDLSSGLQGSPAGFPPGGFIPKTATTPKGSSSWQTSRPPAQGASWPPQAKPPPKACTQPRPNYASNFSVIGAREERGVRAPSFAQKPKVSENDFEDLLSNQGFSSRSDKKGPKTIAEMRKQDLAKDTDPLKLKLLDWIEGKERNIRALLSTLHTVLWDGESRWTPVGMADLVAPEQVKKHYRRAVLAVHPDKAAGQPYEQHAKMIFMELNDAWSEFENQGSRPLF
Nature of the data set: Binding affinity to human GAK fused to T7 bacteriophage expressed in Escherichia coli BL21 after 1 hr by qPCR analysis.

In data set [2] the target is T2, Dual specificity mitogen-activated protein kinase kinase 5 (Homo sapiens, UniProt Q13163).
T2 sequence (Q13163 whole entry): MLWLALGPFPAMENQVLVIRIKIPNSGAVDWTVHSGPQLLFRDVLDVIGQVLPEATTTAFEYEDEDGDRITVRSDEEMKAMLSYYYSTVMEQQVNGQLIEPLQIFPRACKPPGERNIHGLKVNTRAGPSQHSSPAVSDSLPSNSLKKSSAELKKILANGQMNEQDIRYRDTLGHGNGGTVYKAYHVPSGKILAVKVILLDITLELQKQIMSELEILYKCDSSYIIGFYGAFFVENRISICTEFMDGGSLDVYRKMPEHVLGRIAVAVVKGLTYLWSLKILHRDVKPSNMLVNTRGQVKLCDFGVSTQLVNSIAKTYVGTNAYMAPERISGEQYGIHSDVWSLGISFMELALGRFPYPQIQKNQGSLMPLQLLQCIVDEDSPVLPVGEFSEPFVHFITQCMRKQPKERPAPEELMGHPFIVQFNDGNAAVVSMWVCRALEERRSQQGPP
Nature of the data set: Binding affinity to human MEK5.

Data set [3] has as its target Macrophage colony-stimulating factor 1 receptor (Homo sapiens, UniProt P07333). Nature of the data set: Binding affinity to human CSF1R.
The target in data set [4] is Platelet-derived growth factor receptor alpha (Homo sapiens, UniProt P16234). The data set is described as follows: Binding affinity to human PDGFRalpha.
Data set [5] concerns Hepatitis C virus. Nature of the data set: Antiviral activity against Hepatitis C virus H77 pseudoparticle assessed as inhibition of viral entry into human Huh7.5 cells after 4 hrs by luciferase reporter gene assay. Type of data set: functional, cell-based, Hepacivirus hominis. Conditions: genotype 1a H77, Huh-7, 4 h.
In data set [6] the test system is Hepatitis C virus. The data set is described as follows: Antiviral activity against Hepatitis C virus J6/JFH electroporated in human Huh7.5 cells assessed as inhibition of intracellular infectivity drug treated every 24 hrs for 72 hrs measured 72 hrs post electroporation by luciferase reporter gene assay. Type of data set: functional, organism-based, Hepacivirus hominis. Conditions: Huh-7. Background: A reporter such as luciferase makes a cellular process visible.

The target of data set [7] is T3, Receptor-type tyrosine-protein kinase FLT3 (Homo sapiens, UniProt P36888).
T3 sequence (P36888 whole entry): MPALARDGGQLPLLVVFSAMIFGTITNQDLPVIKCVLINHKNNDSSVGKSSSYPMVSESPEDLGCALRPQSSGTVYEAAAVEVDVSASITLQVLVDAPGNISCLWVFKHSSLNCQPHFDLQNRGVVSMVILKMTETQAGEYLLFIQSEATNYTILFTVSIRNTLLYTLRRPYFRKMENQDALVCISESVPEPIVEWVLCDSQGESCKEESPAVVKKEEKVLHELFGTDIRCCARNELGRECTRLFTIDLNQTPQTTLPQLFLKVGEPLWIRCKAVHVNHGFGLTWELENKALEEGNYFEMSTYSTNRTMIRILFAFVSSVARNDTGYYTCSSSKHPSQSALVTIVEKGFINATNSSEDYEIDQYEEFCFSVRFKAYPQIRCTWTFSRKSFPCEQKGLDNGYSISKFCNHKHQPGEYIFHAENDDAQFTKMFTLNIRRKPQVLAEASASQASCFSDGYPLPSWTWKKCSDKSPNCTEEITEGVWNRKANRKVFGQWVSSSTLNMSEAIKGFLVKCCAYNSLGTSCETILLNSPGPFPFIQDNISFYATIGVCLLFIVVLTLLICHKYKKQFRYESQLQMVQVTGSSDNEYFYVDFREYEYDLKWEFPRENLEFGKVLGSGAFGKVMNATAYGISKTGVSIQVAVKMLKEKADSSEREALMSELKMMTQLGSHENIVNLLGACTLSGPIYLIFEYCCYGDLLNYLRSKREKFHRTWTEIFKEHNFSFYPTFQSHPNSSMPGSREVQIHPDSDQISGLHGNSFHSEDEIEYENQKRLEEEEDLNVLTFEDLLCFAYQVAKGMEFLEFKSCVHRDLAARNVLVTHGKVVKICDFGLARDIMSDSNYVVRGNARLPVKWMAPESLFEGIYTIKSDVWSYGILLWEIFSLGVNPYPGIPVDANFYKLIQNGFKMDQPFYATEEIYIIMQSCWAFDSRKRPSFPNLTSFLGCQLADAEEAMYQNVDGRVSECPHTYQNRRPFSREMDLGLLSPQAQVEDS
Nature of the data set: Binding affinity to human FLT3.

The test system of data set [8] is Hepatitis C virus. Nature of the data set: Antiviral activity against Hepatitis C virus J6/JFH infected in human Huh7.5 cells assessed as inhibition of extracellular infectivity drug treated every 24 hrs for 72 hrs measured after 72 hrs by luciferase reporter gene assay. Conditions: Huh-7. The data set is classed as functional, organism-based, Hepacivirus hominis.

Data set [9] can be described thus: Cytotoxicity against human Huh7.5 cells infected with Hepatitis C virus J6/JFH assessed as effect on cell viability after 72 hrs by Alamarblue assay. The data set is classed as cell-based. Conditions: huh-7, 72 h. (Alamar Blue is a resazurin reagent that responds to reducing activity.)
In data set [10] the target is Dual specificity protein kinase CLK2 (Homo sapiens, UniProt P49760). Nature of the data set: Binding affinity to human CLK2.
Data set [11] in a line: Cytotoxicity against human Huh7.5 cells infected with Hepatitis C virus H77 pseudoparticle assessed as effect on cell viability after 4 hrs by Alamarblue assay. The data set is classed as cell-based. The following applies: huh-7, 4 h.
Data set [12] relates to Hepatitis C virus. The data set is described as follows: Antiviral activity against Hepatitis C virus J6/JFH infected in human Huh7.5 cells assessed as inhibition of viral replication measured after 72 hrs by luciferase reporter gene assay. Type of data set: functional, organism-based, Hepacivirus hominis. The following applies: Huh-7, 72 h.
The target of data set [13] is Mast/stem cell growth factor receptor Kit (Homo sapiens, UniProt P10721). Nature of the data set: Binding affinity to human KIT.
In data set [14] the target is Platelet-derived growth factor receptor beta (Homo sapiens, UniProt P09619). Nature of the data set: Binding affinity to human PDGFRbeta.
Chain of Platelet-derived growth factor receptor beta (P09619 whole entry): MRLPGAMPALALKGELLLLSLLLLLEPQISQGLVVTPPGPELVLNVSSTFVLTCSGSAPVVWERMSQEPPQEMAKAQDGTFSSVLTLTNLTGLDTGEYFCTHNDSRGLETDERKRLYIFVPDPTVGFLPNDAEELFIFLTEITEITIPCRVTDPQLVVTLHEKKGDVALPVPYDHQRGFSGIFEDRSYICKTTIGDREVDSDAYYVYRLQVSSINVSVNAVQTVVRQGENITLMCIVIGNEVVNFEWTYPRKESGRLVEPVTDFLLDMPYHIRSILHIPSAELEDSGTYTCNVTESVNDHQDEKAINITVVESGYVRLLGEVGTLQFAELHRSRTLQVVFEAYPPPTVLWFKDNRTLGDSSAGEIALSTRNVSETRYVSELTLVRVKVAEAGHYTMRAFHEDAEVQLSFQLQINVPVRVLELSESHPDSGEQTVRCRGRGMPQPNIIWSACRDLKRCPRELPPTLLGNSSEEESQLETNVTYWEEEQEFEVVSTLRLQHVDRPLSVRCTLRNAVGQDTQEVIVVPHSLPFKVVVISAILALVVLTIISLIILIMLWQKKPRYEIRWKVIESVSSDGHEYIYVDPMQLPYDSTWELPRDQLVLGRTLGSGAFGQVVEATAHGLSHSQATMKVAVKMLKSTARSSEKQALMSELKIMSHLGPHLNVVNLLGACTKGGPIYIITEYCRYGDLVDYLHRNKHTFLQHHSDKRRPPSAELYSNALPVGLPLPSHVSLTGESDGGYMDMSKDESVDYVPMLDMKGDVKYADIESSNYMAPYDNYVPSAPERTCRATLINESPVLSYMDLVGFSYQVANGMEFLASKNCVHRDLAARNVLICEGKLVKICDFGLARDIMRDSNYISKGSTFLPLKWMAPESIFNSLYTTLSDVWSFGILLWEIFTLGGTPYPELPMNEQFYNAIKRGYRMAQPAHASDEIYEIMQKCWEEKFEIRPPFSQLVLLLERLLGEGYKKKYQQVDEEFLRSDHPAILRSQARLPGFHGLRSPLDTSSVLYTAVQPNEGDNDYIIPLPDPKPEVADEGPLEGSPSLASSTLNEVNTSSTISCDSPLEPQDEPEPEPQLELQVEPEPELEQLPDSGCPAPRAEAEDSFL

Chain of Macrophage colony-stimulating factor 1 receptor (P07333 whole entry): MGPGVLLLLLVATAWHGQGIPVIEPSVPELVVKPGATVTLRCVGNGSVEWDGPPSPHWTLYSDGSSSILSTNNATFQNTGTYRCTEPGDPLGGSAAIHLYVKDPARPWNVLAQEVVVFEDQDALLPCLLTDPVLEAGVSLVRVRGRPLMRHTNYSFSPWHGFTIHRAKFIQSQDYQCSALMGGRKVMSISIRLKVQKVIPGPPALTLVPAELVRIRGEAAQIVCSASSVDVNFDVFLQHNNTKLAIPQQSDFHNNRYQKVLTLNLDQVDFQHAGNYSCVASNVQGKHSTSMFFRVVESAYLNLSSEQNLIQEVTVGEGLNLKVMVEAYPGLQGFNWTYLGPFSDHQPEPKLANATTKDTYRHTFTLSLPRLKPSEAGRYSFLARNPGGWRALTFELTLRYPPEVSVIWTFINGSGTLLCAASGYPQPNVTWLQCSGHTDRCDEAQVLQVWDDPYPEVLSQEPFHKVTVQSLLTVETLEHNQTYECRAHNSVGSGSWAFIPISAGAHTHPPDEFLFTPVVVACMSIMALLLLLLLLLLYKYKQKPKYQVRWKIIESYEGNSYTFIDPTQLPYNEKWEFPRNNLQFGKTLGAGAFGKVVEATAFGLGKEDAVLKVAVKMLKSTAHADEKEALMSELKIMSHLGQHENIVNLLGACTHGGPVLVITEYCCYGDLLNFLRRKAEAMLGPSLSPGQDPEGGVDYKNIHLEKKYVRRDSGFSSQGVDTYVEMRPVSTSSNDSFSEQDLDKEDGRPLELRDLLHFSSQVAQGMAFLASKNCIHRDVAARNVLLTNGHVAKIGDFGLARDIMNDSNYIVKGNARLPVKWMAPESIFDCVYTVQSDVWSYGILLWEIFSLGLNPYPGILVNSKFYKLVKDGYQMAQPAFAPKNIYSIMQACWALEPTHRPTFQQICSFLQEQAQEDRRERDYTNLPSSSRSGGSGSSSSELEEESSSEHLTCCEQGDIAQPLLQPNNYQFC
Chain of Dual specificity protein kinase CLK2 (P49760 whole entry): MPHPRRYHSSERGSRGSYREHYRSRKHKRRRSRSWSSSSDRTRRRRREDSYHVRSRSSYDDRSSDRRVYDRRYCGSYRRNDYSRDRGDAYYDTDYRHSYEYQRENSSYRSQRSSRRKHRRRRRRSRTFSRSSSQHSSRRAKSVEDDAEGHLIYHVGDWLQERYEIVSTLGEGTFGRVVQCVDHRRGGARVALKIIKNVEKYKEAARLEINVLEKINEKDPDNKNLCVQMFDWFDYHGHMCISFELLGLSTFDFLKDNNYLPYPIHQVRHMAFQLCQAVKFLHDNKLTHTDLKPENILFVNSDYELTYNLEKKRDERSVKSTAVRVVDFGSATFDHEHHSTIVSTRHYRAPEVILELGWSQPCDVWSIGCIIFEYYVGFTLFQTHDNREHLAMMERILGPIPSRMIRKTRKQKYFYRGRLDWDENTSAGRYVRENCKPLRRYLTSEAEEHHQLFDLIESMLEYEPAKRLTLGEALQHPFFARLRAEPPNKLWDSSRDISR
Chain of Platelet-derived growth factor receptor alpha (P16234 whole entry): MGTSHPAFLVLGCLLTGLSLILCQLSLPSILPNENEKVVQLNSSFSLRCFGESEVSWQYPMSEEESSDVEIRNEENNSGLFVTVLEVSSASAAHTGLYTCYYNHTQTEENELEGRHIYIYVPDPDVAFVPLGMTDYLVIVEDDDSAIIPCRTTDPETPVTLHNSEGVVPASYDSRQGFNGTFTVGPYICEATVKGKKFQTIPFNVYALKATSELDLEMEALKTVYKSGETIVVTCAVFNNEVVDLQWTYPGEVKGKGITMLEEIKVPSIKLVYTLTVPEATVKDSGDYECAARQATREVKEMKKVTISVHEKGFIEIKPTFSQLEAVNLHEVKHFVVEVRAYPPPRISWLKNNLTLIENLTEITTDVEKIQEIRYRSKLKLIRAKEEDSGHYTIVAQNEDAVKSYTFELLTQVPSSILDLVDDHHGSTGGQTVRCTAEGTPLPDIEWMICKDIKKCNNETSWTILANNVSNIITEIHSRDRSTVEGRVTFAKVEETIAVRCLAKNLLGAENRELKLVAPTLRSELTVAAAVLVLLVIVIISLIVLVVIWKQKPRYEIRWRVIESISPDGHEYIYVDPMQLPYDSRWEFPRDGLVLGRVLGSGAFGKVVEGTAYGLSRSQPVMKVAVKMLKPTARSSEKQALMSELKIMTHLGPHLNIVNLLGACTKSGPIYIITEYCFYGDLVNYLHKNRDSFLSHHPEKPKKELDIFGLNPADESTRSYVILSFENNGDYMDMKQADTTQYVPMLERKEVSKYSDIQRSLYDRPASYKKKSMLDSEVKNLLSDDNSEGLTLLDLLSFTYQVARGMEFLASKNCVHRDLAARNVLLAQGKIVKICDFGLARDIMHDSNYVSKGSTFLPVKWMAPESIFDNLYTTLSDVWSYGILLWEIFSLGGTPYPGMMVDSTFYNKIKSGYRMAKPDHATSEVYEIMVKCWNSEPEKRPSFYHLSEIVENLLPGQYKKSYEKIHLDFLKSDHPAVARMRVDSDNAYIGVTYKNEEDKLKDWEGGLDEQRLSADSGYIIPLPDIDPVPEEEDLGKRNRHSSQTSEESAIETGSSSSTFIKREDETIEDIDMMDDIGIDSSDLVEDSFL
Chain of Mast/stem cell growth factor receptor Kit (P10721 whole entry): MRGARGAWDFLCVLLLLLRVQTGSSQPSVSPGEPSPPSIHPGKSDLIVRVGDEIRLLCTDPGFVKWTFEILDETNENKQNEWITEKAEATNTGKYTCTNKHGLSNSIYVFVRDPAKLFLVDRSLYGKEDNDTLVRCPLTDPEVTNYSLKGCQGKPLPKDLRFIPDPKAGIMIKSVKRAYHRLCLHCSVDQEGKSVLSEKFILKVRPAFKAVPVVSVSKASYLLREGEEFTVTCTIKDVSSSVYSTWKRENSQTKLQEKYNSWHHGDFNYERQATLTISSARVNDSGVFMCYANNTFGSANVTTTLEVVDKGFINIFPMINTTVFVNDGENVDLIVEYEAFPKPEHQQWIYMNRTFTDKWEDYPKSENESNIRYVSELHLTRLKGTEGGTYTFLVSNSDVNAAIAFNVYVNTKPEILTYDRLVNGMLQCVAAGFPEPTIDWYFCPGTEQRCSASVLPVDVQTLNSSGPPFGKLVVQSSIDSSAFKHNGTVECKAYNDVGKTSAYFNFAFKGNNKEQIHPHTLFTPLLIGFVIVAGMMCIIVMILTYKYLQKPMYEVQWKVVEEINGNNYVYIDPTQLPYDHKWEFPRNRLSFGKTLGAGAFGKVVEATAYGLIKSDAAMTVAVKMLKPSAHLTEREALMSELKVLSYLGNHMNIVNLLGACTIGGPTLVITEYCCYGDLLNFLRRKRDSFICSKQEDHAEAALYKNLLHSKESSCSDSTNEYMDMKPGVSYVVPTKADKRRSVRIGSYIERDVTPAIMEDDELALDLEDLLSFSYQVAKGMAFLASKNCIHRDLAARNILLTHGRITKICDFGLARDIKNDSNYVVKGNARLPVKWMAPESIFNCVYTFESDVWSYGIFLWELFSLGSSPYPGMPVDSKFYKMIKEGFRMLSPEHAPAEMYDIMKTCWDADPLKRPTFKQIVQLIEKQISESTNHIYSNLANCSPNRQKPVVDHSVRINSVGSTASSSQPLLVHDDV

In data set [1], `COc1ccc(-c2cnc3c(N4CCOCC4)snc3c2)cc1OC` returned a Kd of 52 nM.
On to `c1cc(-c2cnc3c(N4CCOCC4)snc3c2)cs1`, for which the Kd in data set [1] came out at 42 nM.
On the same count and under the same terms, for `c1cc(-c2cnc3c(N4CCOCC4)snc3c2)co1` the value was 200 nM.
On the same count and under the same terms, the value for `COc1ccc(OC)c(-c2cnc3c(N4CCOCC4)snc3c2)c1` was 130 nM; that for `COc1cc(OC)cc(-c2cnc3c(N4CCOCC4)snc3c2)c1` was 72 nM.
Turning to `COc1cc(-c2cnc3c(N4CCOCC4)snc3c2)cc(OC)c1OC`, the Kd was found to be 150 nM in [2]; 320 nM in data set [3]; 220 nM in data set [4]; 110 nM in data set [7]; 710 nM in data set [10]; 29 nM in [13]. Besides, the Kd in data set [14] amounted to 70 nM. In addition, the EC50 in data set [5] is 3600 nM; in data set [6] it was 1640 nM; in data set [8] it was 2130 nM; in data set [12], 2550 nM. In data set [9], the CC50 was 23300 nM. Besides, the Activity result in data set [11] is on record as “Non-toxic”.
In the case of `COc1cc(-c2cnc3c(N4CCOCC4)snc3c2)ccc1OC(C)=O`, in data set [1], the Kd was determined as 18 nM.
For `COc1cc(-c2cnc3c(N4CCOCC4)snc3c2)ccc1N`, the Activity entry in data set [11] is reported as “Non-toxic”.
As to `COc1cc(-c2cnc3c(N4CCOCC4)snc3c2)ccc1O`, the Kd in [1] worked out at 18 nM.
Regarding `C#Cc1cccc(Nc2ncnc3cc(OCCOC)c(OCCOC)cc23)c1` [ERLOTINIB], the EC50 in data set [6], in [8] and in [12] was 500 nM in each case.
